# Values quoted from earlier work in patent US20040063658A1, “Nucleoside derivatives for treating hepatitis C virus infection” (priority 2002, published 2004).
# What was measured:
# [1] = patients treated at currently recommended doses
# HCV = settings: treatment of HCV with interferon, long term efficacy
compound,measurement,setting,value
"NC(=O)c1ncn([C@@H]2O[C@H](CO)[C@@H](O)[C@H]2O)n1 [Ribavirin, 1-β-D-ribofuranosyl-1H-1,2,-4-triazole-3-carboxamide]",patients with significant hemolysis,[1],10-20%
interferon,response rate,HCV,about 25%
